Measured values as given in PMC7825511, “Design Strategy for the EPR Tumor-Targeting of 1,2-Bis(sulfonyl)-1-alkylhydrazines” (Molecules, 2021).

Tested on: matching cell lines
Test: not given
Details: cited from earlier work

Structure (SMILES)	MGMT level up to which protection towards the agent is proportional to MGMT activity
CS(=O)(=O)NN(CCCl)S(C)(=O)=O [90CE, 1,2-bis(methylsulfonyl)-1-(2-chloroethyl)hydrazine]	~ 10,000 MGMT molecules/cell

Same assay, conditions: same matching cell lines with/without MGMT expression; cited from earlier work

Structure (SMILES)	increase in the IC50 value resulting from MGMT expression
CS(=O)(=O)NN(CCCl)S(C)(=O)=O [90CE, 1,2-bis(methylsulfonyl)-1-(2-chloroethyl)hydrazine]	~ 20 fold
O=NN(CCCl)C(=O)NCCCl [bis-chloroethylnitrosourea (BCNU), bis-chloroethylnitrosourea]	2 to 3 fold

Tested on: not listed separately
Test: Linker half-life determination by spectrophotometric proton release assay (spontaneous hydrolysis)
Assay type: physicochemical
Details: buffer; 37 °C, pH 7.4; low molecular weight 90CE prodrugs with different N-2 substituents; read-out: Half-life (h) 37°C pH 7.4 (spontaneous hydrolysis) (converted)
Protocol: Linker half-life determination. The hydrolytic half-lives of several proposed linker moieties were determined using the proton release assay. The results are given in (Figure 4), several possible linkers with suitably long half-live values (40–300 h) were identified.
Decomposition kinetics. The kinetics of decomposition of various compounds and intermediates under various conditions can be followed using a spectrophotometric proton release assay. This is the preferred method for relatively short-lived agents as the decomposition can be followed in real time. This method is also suitable for following the decomposition of much longer-lived agents, as long as the reaction vessel/cuvette is sealed to prevent changes in pH due to CO2 absorption/desorption, and the temperature is closely controlled.

Structure (SMILES)	half-life [h]
CN(C)C(=O)N(N(CCCl)S(C)(=O)=O)S(C)(=O)=O [D]	129 ± 9
CCN(CC)C(=O)N(N(CCCl)S(C)(=O)=O)S(C)(=O)=O [E]	10.3 ± 0.3
CC(=O)N(N(CCCl)S(C)(=O)=O)S(C)(=O)=O [A]	42.9 ± 2.1
COC(=O)N(N(CCCl)S(C)(=O)=O)S(C)(=O)=O [B]	> 300
CS(=O)(=O)N(CCCl)N(C(=O)N1CCOCC1)S(C)(=O)=O [I]	> 300
CC1CCC(C)N1C(=O)N(N(CCCl)S(C)(=O)=O)S(C)(=O)=O (stereo not shown) [G]	> 300
CS(=O)(=O)N(CCCl)N(C(=O)N1CCCC1)S(C)(=O)=O [F]	> 300
CNC(=O)N(N(CCCl)S(C)(=O)=O)S(C)(=O)=O [C]	1.17 ± 0.02
CS(=O)(=O)N(CCCl)N(C(=O)N1CCCCC1)S(C)(=O)=O [H]	16.2 ± 0.5

Tested on: O-6 position of DNA guanine
Test: not given
Set-up: method as in PMID 20654586
Details: relative to chloroethylating counterpart 90CE; cited from earlier work

Structure (SMILES)	molar yield of guanine O-6 alkylations relative to 90CE
CN(NS(C)(=O)=O)S(C)(=O)=O [KS90, 1,2-bis(methylsulfonyl)-1-(methyl)hydrazine]	5–6 times
